In patent publication US9394285B2 (Pfizer Inc., priority 2013, dated 2016):

Molecular target: human AMPK (full-length γ1, β1 and α1 subunits) (Homo sapiens (Human), UniProt Q13131+Q9Y478)
Assay: AMPK in vitro biochemical assay (33P-based, SAMS peptide, PP2A dephosphorylation)
Conditions: for EC50: activation of phosphorylated AMPK, 33P-ATP, SAMS peptide, PP2A treatment, 4-parameter fit; for Emax: counts as % of positive control wells (enzyme, allosteric activator or AMP, PP2A and substrate), read-out: Maximum
Excerpt: We designed a tricistronic AMPK expression construct that included open reading frames encoding the full-length γ1, β1 and α1 subunits of human AMPK with a ribosome-binding site (RBS) ahead of each coding region and subcloned this into pET-14b expression vector (Novagen, Madison, Wis.) using standard molecular biology techniques. AMPK tricistronic construct was transformed into E. coli BL21-CodonPlus™ (DE3)-RIPL strain (Stratagene) and transformants were selected on LB (Luria-Bertani) agar plates containing ampicillin (100 μg/ml). […] Optical density sample measurements were made on an UltroSpec 2000 spectrophotometer (Pharmacia Biotech) at 600 nm. When the cell density reached ˜0.9 OD, the temperature was reduced to 18° C. and the culture was induced at 18° C. with 0.1 mM Isopropylthiogalactoside (IPTG). […] The cell pellets were aliquoted into four portions, flash frozen in liquid nitrogen and were stored at −80° C. until purification. For purification, frozen cell paste was thawed and resuspended in 50 ml lysis buffer (50 mM Tris, pH 8.0, 150 mM NaCl, 10% glycerol, 2 mM Tris-2-carboxyethyl phosphine (TCEP), 20 mM imidazole and 0.001% Triton X-100). After sonication, insoluble material was removed by centrifugation at 15,000 rpm in a Sorvall® RC5 plus centrifuge for 30 min at 4° C. and the supernatant was loaded onto a 5 ml HisTrap™ HP column (GE Healthcare, Piscataway, N.J.) and washed with five column volumes of lysis buffer. Bound proteins were eluted using an elution buffer containing 300 mM imidazole. Fractions containing AMPK subunits were pooled based on SDS-10% PAGE analysis and dialyzed overnight in dialysis buffer (50 mM Tris, pH 8.0, 150 mM NaCl, 10% glycerol, 2 mM TCEP, and 0.001% Triton X-100). […] The phosphorylated AMPK complex was re-purified on HisTrap™ HP column as before, dialyzed over night in dialysis buffer. The phosphorylated AMPK complex was further purified by gel filtration chromatography with a Superdex 200 HiLoad 16/60 column (GE Healthcare) in SEC buffer (50 mM Tris, pH 8.0, 150 mM NaCl, 10% glycerol, 2 mM TCEP, and 0.001% Triton X-100).
The harvest time (72 hours post infection) was indicated by percent cell viability (to 85-90%) and increased cell diameter (3-4 μm). […] For purification, the cell paste was resuspended in 500 mL lysis buffer (50 mM Tris pH 8.0, 150 mM NaCl, 25 mM imidazole, 10% glycerol, 2 mM MgCl2, 2 mM TCEP+protease inhibitor cocktail. After lysis, cellular debris was removed by centrifugation at 36K×g for 1 hour. The resulting supernatant was filtered at 0.2 micron before applying to a 1 mL nickel charged IMAC column (HisTrap, GE). The bound resin was washed to baseline with 50 CV of 50 mM Tris pH 8.0, 150 mM NaCl, 25 mM imidazole, 10% glycerol, 2 mM MgCl2, 2 mM TCEP before eluting over a 20 CV gradient to 100% with wash buffer containing 500 mM imidazole. Pooled fractions containing PP2A were combined and diluted 10× with 50 mM Tris pH 8.0, 10% glycerol, 1 mM TCEP and applied to a 1 mL AIEX resin (HiTrap QFF, GE). The bound resin was washed with dilution buffer and PP2A was eluted over a 20 CV gradient to 100% 50 mM Tris pH 8.0, 500 mM NaCl, 10% glycerol, 1 mM TCEP and was further diluted 1:1 with 50 mM Tris pH 8.0, 150 mM NaCl, 10% glycerol, and 1 mM TCEP buffer.
The biochemical EC50 (half-maximal concentration required for full activation) of compounds for the activation of AMPK was evaluated by ^33P-based assay using SAMS peptide (commercially available) derived from ACC-1. Twenty μl of phosphorylated AMPK diluted in assay buffer, (50 mM HEPES, 1 mM EGTA, 10 mM MgCl2, 0.25 mM DTT, 0.01% Tween-20, 0.01% BSA (pH 7.5)) was added to 384 well plates containing 1 μL of test compound. Following a fifteen minute room temperature incubation, 10 μL of protein phosphatase PP2A was added to the plate to dephosphorylate pThr172 of AMPK. […] The reaction was terminated after 60 minutes incubation at room temperature by the addition of 15 μL of 2% H3PO4.

Chain of human AMPK (full-length γ1, β1 and α1 subunits) (Q13131 whole entry): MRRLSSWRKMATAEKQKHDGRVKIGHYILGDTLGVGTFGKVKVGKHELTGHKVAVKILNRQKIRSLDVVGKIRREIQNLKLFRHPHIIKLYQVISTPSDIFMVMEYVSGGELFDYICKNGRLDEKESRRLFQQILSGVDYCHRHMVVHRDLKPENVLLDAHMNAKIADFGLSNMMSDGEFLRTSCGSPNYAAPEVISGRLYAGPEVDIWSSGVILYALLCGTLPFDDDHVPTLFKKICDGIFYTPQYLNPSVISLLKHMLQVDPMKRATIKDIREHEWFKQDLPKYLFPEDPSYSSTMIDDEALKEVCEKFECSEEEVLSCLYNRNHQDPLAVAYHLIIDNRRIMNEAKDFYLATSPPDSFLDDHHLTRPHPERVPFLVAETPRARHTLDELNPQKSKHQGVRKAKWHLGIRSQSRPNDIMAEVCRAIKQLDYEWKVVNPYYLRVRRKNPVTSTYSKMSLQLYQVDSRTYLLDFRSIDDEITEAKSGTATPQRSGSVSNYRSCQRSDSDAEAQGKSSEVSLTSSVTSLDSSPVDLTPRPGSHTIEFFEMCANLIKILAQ
Chain of human AMPK (full-length γ1, β1 and α1 subunits) (Q9Y478 whole entry): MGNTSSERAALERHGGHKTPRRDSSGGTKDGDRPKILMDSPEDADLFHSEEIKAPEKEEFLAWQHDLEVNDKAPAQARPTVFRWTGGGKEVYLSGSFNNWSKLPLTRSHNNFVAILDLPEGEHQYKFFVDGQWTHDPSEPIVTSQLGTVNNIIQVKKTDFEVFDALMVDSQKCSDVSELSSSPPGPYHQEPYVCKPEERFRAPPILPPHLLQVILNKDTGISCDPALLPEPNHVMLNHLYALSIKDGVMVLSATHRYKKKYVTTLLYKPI
Chain of human AMPK (full-length γ1, β1 and α1 subunits) (P54619 whole entry partner): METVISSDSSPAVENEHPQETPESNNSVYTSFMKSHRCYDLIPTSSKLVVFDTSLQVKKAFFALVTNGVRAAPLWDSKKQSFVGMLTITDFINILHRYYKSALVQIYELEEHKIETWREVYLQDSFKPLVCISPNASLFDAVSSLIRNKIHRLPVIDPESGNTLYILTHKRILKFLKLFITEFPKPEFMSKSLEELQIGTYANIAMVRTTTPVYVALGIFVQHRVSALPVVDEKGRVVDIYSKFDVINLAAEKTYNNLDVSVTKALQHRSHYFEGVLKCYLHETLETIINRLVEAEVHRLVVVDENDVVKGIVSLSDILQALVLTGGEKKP

SMILES	EC50 [µM]	Emax [%]
Cc1ccc(-c2cc3c(C(=O)O)c[nH]c3cc2Cl)cc1 [Example 51, 6-chloro-5-(4-methylphenyl)-1H-indole-3-carboxylic acid]	0.32	93
O=C(O)c1c[nH]c2cc(Cl)c(-c3ccc(OCCCN4CCNCC4)cc3)cc12 [Example 52, 6-chloro-5-{4-[3-(piperazin-1-yl)propoxy]phenyl}-1H-indole-3-carboxylic acid]	0.0381	91
CN1CCN(CCCOc2ccc(-c3cc4c(C(=O)O)c[nH]c4cc3Cl)cc2)CC1 [Example 53, 6-chloro-5-{4-[3-(4-methylpiperazin-1-yl)propoxy]phenyl}-1H-indole-3-carboxylic acid]	0.022	120
O=C(O)c1c[nH]c2cc(Cl)c(-c3ccc(OCCCN4CCOCC4=O)cc3)cc12 [Example 54, 6-chloro-5-{4-[3-(3-oxomorpholin-4-yl)propoxy]phenyl}-1H-indole-3-carboxylic acid]	0.0325	74
COc1cc(-c2cc3c(C(=O)O)c[nH]c3cc2Cl)ccc1OC[C@@H]1CCCN1 [Example 55, (S)-6-Chloro-5-(3-methoxy-4-(pyrrolidin-2-ylmethoxy)phenyl)-1H-indole-3-carboxylic acid]	0.209	87
COc1cc(-c2cc3c(C(=O)O)c[nH]c3cc2Cl)ccc1C(C)(C)O [Example 56, 6-chloro-5-(4-(2-hydroxypropan-2-yl)-3-methoxyphenyl)-1H-indole-3-carboxylic acid]	0.334	137
O=C(O)c1c[nH]c2cc(Cl)c(-c3ccc4c(c3)OCC4)cc12 [Example 57, 6-chloro-5-(2,3-dihydrobenzofuran-6-yl)-1H-indole-3-carboxylic acid]	0.0645	107
O=C(O)c1c[nH]c2cc(Cl)c(-c3ccc(OCCCO)c(F)c3)cc12 [Example 58, 6-chloro-5-[3-fluoro-4-(3-hydroxypropoxy)phenyl]-1H-indole-3-carboxylic acid]	0.0892	107
COc1cc(-c2cc3c(C(=O)O)c[nH]c3cc2Cl)ccc1OCCCO [Example 59, 6-chloro-5-[4-(3-hydroxypropoxy)-3-methoxyphenyl]-1H-indole-3-carboxylic acid]	0.133	75
COc1cc(-c2cc3c(C(=O)O)c[nH]c3cc2Cl)ccc1C1(O)COC1 [Example 60, 6-chloro-5-[4-(3-hydroxyoxetan-3-yl)-3-methoxyphenyl]-1H-indole-3-carboxylic acid]	0.0078	65
COc1cc(-c2cc3c(C(=O)O)c[nH]c3cc2Cl)ccc1C1(O)CCC1 [Example 61, 6-chloro-5-[4-(1-hydroxycyclobutyl)-3-methoxyphenyl]-1H-indole-3-carboxylic acid]	0.0023	57
COc1cc(C2(O)CCC2)ccc1-c1cc2c(C(=O)O)c[nH]c2cc1Cl [Example 62, 6-chloro-5-[4-(1-hydroxycyclobutyl)-2-methoxyphenyl]-1H-indole-3-carboxylic acid]	0.0333	74
O=C(O)c1c[nH]c2cc(Cl)c(-c3ccc(C4CCN4)cc3)cc12 (centres unmarked) [Example 63, 5-(4-azetidin-2-yl-phenyl)-6-chloro-1H-indole-3-carboxylic acid]	0.432	89
O=C(O)c1c[nH]c2cc(Cl)c(-c3ccc(N4CCCC4=O)cc3)cc12 [Example 64, 6-chloro-5-[4-(2-oxopyrrolidin-1-yl)phenyl]-1H-indole-3-carboxylic acid]	0.169	82
CC(=O)N1CCC(c2ccc(-c3cc4c(C(=O)O)c[nH]c4cc3Cl)cc2)CC1 [Example 65, 5-[4-(1-acetylpiperidin-4-yl)phenyl]-6-chloro-1H-indole-3-carboxylic acid]	0.135	103
O=C(O)c1c[nH]c2cc(Cl)c(-c3ccc(-c4ccccc4O)cc3)cc12 [Example 67, 6-chloro-5-(2′-hydroxybiphenyl-4-yl)-1H-indole-3-carboxylic acid]	0.0024	112
O=C(O)c1c[nH]c2cc(Br)c(-c3ccc(-c4ccccc4O)cc3)cc12 [Example 68, 6-Bromo-5-(2′-hydroxybiphenyl-4-yl)-1H-indole-3-carboxylic acid]	0.0043	117
N#Cc1cc(C2(O)CCC2)ccc1-c1cc2c(C(=O)O)c[nH]c2cc1Cl [Example 69, 6-chloro-5-[2-cyano-4-(1-hydroxycyclobutyl)phenyl]-1H-indole-3-carboxylic acid]	0.264	74
NC(=O)COc1ccc(-c2cc3c(C(=O)O)c[nH]c3cc2Cl)cc1 [Example 70, 5-[4-(2-amino-2-oxoethoxy)phenyl]-6-chloro-1H-indole-3-carboxylic acid]	0.0775	106
O=C(O)c1c[nH]c2cc(Cl)c(-c3ccc(CCO)cc3)cc12 [Example 71, 6-chloro-5-[4-(2-hydroxyethyl)phenyl]-1H-indole-3-carboxylic acid]	0.014	75
O=C(O)c1c[nH]c2cc(Cl)c(-c3ccc(C4(CO)CCC4)cc3)cc12 [Example 72, 6-chloro-5-{4-[1-(hydroxymethyl)cyclobutyl]phenyl}-1H-indole-3-carboxylic acid]	0.0043	107
CN(C)c1ncc(-c2cc3c(C(=O)O)c[nH]c3cc2Cl)cn1 [Example 73, 6-chloro-5-[2-(dimethylamino)pyrimidin-5-yl]-1H-indole-3-carboxylic acid]	0.79	118
CN1CCC(c2ccc(-c3cc4c(C(=O)O)c[nH]c4cc3Cl)cc2)C1 (centres unmarked) [Example 74, 6-chloro-5-[4-(1-methylpyrrolidin-3-yl)phenyl]-1H-indole-3-carboxylic acid]	0.0443	110
O=C(O)c1c[nH]c2cc(Cl)c(-c3ccc(C4(CO)CC4)cc3)cc12 [Example 75, 6-chloro-5-{4-[1-(hydroxymethyl)cyclopropyl]phenyl}-1H-indole-3-carboxylic acid]	0.0005	91
O=C(O)c1c[nH]c2cc(Cl)c(-c3cnc(N4CCOCC4)nc3)cc12 [Example 76, 6-chloro-5-[2-(morpholin-4-yl)pyrimidin-5-yl]-1H-indole-3-carboxylic acid]	0.271	104
O=C(O)c1c[nH]c2cc(Cl)c(-c3ccc(CC(=O)N4CCOCC4)cc3)cc12 [Example 77, 6-chloro-5-{4-[2-(morpholin-4-yl)-2-oxoethyl]phenyl}-1H-indole-3-carboxylic acid]	0.207	89
O=C(O)c1c[nH]c2cc(Cl)c(-c3ccc(C4(C(=O)O)CCC4)cc3)cc12 [Example 78, 5-[4-(1-carboxycyclobutyl)phenyl]-6-chloro-1H-indole-3-carboxylic acid]	2	68
O=C1COC(c2ccc(-c3cc4c(C(=O)O)c[nH]c4cc3Cl)cc2)CN1 (centres unmarked) [Example 79, 6-chloro-5-[4-(5-oxomorpholin-2-yl)phenyl]-1H-indole-3-carboxylic acid]	0.104	102
